The values below come from patent US12606520B2, “Calpain-2 inhibitor compounds and methods of treatment” (WESTERN UNIVERSITY OF HEALTH SCIENCES, priority 2020, dated 2026).

For this assay, the target named is T1, calpain-1 (Rattus norvegicus, UniProt P97571).
T1 construct: from tissue; host or cells: rat brain after TBI
T1 sequence (P97571 1-713): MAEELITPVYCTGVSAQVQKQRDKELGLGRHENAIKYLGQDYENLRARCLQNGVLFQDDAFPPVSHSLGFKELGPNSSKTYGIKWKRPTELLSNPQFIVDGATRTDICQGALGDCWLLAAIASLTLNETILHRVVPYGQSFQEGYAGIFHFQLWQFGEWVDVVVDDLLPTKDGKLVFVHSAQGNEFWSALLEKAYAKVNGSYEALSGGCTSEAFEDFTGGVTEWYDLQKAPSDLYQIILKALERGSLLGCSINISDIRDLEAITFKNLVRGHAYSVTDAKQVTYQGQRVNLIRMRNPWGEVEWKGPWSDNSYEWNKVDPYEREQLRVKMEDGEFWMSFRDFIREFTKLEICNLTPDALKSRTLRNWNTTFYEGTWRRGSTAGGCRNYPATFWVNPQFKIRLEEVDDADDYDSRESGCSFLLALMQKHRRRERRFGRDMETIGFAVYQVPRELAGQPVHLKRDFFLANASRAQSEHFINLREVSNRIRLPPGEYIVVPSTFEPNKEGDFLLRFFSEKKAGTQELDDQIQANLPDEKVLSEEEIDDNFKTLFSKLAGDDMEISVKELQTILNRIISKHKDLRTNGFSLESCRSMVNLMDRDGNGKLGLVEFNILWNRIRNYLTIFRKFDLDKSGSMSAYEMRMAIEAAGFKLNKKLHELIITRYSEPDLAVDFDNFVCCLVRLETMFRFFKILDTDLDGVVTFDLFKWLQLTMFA
T1 sequence (Q64537 1-270 partner): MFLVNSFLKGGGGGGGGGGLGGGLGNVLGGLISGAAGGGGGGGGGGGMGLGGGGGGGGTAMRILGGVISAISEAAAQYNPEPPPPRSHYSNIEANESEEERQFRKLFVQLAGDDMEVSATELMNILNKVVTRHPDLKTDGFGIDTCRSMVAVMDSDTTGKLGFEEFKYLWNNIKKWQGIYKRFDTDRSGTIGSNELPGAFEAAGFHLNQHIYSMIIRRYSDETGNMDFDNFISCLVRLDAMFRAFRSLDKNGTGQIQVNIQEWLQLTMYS
Put plainly: Calpain-1 activity in brain after TBI in rats. Format: in vivo. Conditions: 1 mg/kg i.p. at 1 h and 8 h after TBI, 24 h after TBI. The protocol:
We also performed the same model of TBI in male and female mice and in male and female rats. In all cases, NA184 was injected i.p. at 1 mg/kg. For the rat experiments, NA184 was injected twice at 1 h and 8 h after TBI. Animals were sacrificed 24 h after TBI and calpain activity was assayed in brain and cell death was analyzed in cortex. […] In addition, there was a highly significant correlation between calpain-2 activity and cell death in rats (FIG. 23). R^2 was 0.61 and p<0.005.

Each structure is given as a SMILES string.

Regarding `CCC(NC(=O)[C@H](CC(C)C)NC(=O)NCc1ccccc1)C(=O)C(=O)NCc1cccc(Cl)c1OC` (stereo partly drawn) [NA184, (2S)-2-(3-benzylureido)-N-(1-((3-chloro-2-methoxybenzyl)amino)-1,2-dioxopentan-3-yl)-4-methylpentanamide], the “Calpain-1 inhibition in brain, male and female rats” value is recorded as “not calpain-1”.
